Results taken from patent US20080171760A1, “SPIROPIPERIDINE GLYCINAMIDE DERIVATIVES” (priority 2007, published 2008).

molecular target: T1, human V1a receptor (Homo sapiens, UniProt P37288); experiment: human V1a receptor binding study (3H-Vasopressin, SPA beads); settings: membranes of HEK293 cells transiently transfected with human V1a receptor, Ki calculated using the Cheng-Prussoff equation, read-out: pKi hV1a (converted)
T1 construct: expressed in transfected cells; host or cells: HEK293 cells, transiently transfected; cell membranes
Method: The human V1a receptor was cloned by RT-PCR from total human liver RNA. The coding sequence was subcloned in an expression vector after sequencing to confirm the identity of the amplified sequence. […] Cell membranes were prepared from HEK293 cells transiently transfected with the expression vector and grown in 20 liter fermenters with the following protocol.
50 g of cells were resuspended in 30 ml freshly prepared ice cold Lysis buffer (50 mM HEPES, 1 mM EDTA, 10 mM MgCl2 adjusted to pH=7.4+complete cocktail of protease inhibitor (Roche Diagnostics)), homogenized with Polytron for 1 min, and sonicated on ice for 2×2 minutes at 80% intensity (Vibracell sonicator). The preparation was centrifuged 20 min at 500 g at 4° C., the pellet was discarded and the supernatant centrifuged 1 hour at 43,000 g at 4° C. (19,000 rpm). The pellet was resuspended in 12.5 ml Lysis buffer+12.5 ml Sucrose 20% and homogenized using a Polytron for 1-2 min. The protein concentration was determined by the Bradford method and aliquots are stored at −80° C. until use. For binding studies 60 mg Yttrium silicate SPA beads (Amersham) were mixed with an aliquot of membrane in binding buffer (50 mM Tris, 120 mM NaCl, 5 mM KCl, 2 mM CaCl2, 10 mM MgCl2) for 15 minutes with mixing. 50 ul of bead/membrane mixture was then added to each well of a 96 well plate, followed by 50 ul of 4 nM 3H-Vasopressin (American Radiolabeled Chemicals). For total binding measurement 100 ul of binding buffer were added to the respective wells, for non-specific binding 100 ul of 8.4 mM cold vasopressin and for compound testing 100 ul of a serial dilution of each compound in 2% DMSO. The plate was incubated 1 h at room temperature, centrifuged 1 min at 1000 g and counted on a Packard Top-Count. Non-specific binding counts were subtracted from each well and data was normalized to the maximum specific binding set at 100%. To calculate an IC 50 the curve was fitted using a non-linear regression model (XLfit) and the Ki is calculated using the Cheng-Prussoff equation.

T1 sequence (P37288 whole entry): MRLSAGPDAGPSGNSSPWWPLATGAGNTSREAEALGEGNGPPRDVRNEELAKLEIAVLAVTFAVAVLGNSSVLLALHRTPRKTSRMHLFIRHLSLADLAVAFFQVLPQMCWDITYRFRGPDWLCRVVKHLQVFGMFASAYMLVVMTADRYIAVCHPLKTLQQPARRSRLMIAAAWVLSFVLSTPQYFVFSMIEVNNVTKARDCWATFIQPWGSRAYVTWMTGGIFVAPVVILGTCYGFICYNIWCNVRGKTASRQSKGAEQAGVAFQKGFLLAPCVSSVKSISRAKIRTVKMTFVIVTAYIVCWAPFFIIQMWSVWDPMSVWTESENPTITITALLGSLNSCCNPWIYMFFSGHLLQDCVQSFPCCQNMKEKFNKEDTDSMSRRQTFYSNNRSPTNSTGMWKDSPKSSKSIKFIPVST

| Compound | Ki [nM] |
| --- | --- |
| O=C(CNC(c1ccccc1)c1ccc(Cl)cc1)N1CCC2(CC1)OCc1ccccc12 (racemic) [Example 2, (RS)—N-[(4-Chlorophenyl)(phenyl)methyl]-2-oxo-2-(1′H,3H-spiro[2-benzofuran-1,4′-piperidin]-1′-yl)ethanamine] | 9.12 |
| O=C(CNC(c1ccccc1)c1cccc(Cl)c1)N1CCC2(CC1)OCc1ccccc12 (racemic) [Example 8, (RS)—N-[(3-Chlorophenyl)(phenyl)methyl]-2-oxo-2-(1′H,3H-spiro[2-benzofuran-1,4′-piperidin]-1′-yl)ethanamine] | 14.8 |
| O=C(CNC(c1ccccc1)c1ccc(Cl)c(Cl)c1)N1CCC2(CC1)OCc1ccccc12 (racemic) [Example 9, (RS)—N-[(3,4-Dichlorophenyl)(phenyl)methyl]-2-oxo-2-(1′H,3H-spiro[2-benzofuran-1,4′-piperidin]-1′-yl)ethanamine] | 14.5 |
| O=C(CNC(c1ccccc1)c1cccc(C(F)(F)F)c1)N1CCC2(CC1)OCc1ccccc12 (racemic) [Example 12, (RS)-2-Oxo-N-{phenyl[3-(trifluoromethyl)phenyl]methyl}-2-(1′H,3H-spiro[2-benzofuran-1,4′-piperidin]-1′-yl)ethanamine] | 30.2 |
| O=C(CNC(c1ccc(F)cc1)c1cccc(C(F)(F)F)c1)N1CCC2(CC1)OCc1ccccc12 (racemic) [Example 13, (RS)—N-{(4-Fluorophenyl)[3-(trifluoromethyl)phenyl]methyl}-2-oxo-2-(1′H,3H-spiro[2-benzofuran-1,4′-piperidin]-1′-yl)ethanamine] | 29.5 |
| O=C(CNC(c1ccccc1)c1ccc(C(F)(F)F)cc1)N1CCC2(CC1)OCc1ccccc12 (racemic) [Example 18, (RS)-2-Oxo-N-{phenyl[4-(trifluoromethyl)phenyl]methyl}-2-(1′H,3H-spiro[2-benzofuran-1,4′-piperidin]-1′-yl)ethanamine] | 20.9 |
| O=C(CNC(c1ccccc1)c1cccs1)N1CCC2(CC1)OCc1ccccc12 (racemic) [Example 20, (RS)-2-Oxo-N-[phenyl(2-thienyl)methyl]-2-(1′H,3H-spiro[2-benzofuran-1,4′-piperidin]-1′-yl)ethanamine] | 9.12 |
| O=C(CNC(c1ccccc1)c1ccccn1)N1CCC2(CC1)OCc1ccccc12 (racemic) [Example 27, (RS)-2-Oxo-N-[phenyl(pyridin-2-yl)methyl]-2-(1′H,3H-spiro[2-benzofuran-1,4′-piperidin]-1′-yl)ethanamine] | 18.2 |
| O=C(CNC(c1ccc(F)cc1)c1cccs1)N1CCC2(CC1)OCc1ccccc12 (racemic) [Example 29, (RS)—N-[(4-Fluorophenyl)(2-thienyl)methyl]-2-oxo-2-(1′H,3H-spiro[2-benzofuran-1,4′-piperidin]-1′-yl)ethanamine] | 15.8 |
| Cc1n[nH]c(C)c1C(NCC(=O)N1CCC2(CC1)OCc1ccccc12)c1ccccc1 (racemic) [Example 30, (RS)—N-[(3,5-Dimethyl-1H-pyrazol-4-yl)(phenyl)methyl]-2-oxo-2-(1′H,3H-spiro[2-benzofuran-1,4′-piperidin]-1′-yl)ethanamine] | 23.4 |
| Cc1cccc(C(NCC(=O)N2CCC3(CC2)OCc2ccccc23)c2ccccc2)c1 (racemic) [Example 34, (RS)—N-[(3-Methylphenyl)(phenyl)methyl]-2-oxo-2-(1′H,3H-spiro[2-benzofuran-1,4′-piperidin]-1′-yl)ethanamine] | 18.6 |
| O=C(CNC(c1ccccc1)c1cc(Cl)ccc1O)N1CCC2(CC1)OCc1ccccc12 (racemic) [Example 37, (RS)-4-Chloro-2-[{[2-oxo-2-(1′H,3H-spiro[2-benzofuran-1,4′-piperidin]-1′yl)ethyl]amino}(phenyl)methyl]phenol] | 14.5 |
| C[C@](O)(c1ccccn1)[C@H](NCC(=O)N1CCC2(CC1)OCc1ccccc12)c1ccc(Cl)cc1 (racemic) [Example 49, (1RS,2RS)-1-(4-Chlorophenyl)-1-{[2-oxo-2-(1′H,3H-spiro[2-benzofuran-1,4′-piperidin]-1′-yl)ethyl]amino}-2-pyridin-2-yl-propan-2-ol] | 18.6 |
| O=C(CNC(c1cccc(Cl)c1)c1ncco1)N1CCC2(CC1)OCc1ccccc12 (racemic) [Example 68, (RS)—N-[(3-Chlorophenyl) (1,3-oxazol-2-yl)methyl]-2-oxo-2-(1′H,3H-spiro [2-benzofuran-1,4′-piperidin]-1′-yl)ethanamine] | 8.51 |
| O=C(CN[C@@H](c1ccccc1)c1ccc(Cl)cc1)N1CCC2(CC1)OCc1ccccc12 (single isomer, unassigned) [Example 4, N-[(+)-(4-chlorophenyl)(phenyl)methyl]-2-oxo-2-(1′H,3H-spiro[2-benzofuran-1,4′-piperidin]-1′-yl)ethanamine] | 20.4 |
| O=C(CNC(c1ccccc1)c1ccccc1)N1CCC2(CC1)OCc1ccccc12 [Example 6, N-(Diphenylmethyl)-2-oxo-2-(1′H,3H-spiro[2-benzofuran-1,4′-piperidin]-1′-yl)ethanamine] | 11.7 |
| O=C(Nc1ccc(Cl)cc1)[C@H](NCC(=O)N1CCC2(CC1)OCc1ccccc12)c1ccccc1 [Example 31, (2R)—N-(4-Chlorophenyl)-2-{[2-oxo-2-(1′H,3H-spiro[2-benzofuran-1,4′-piperidin]-1′-yl)ethyl]amino}-2-phenylacetamide] | 42.7 |
| O=C(CN[C@H](c1ccc(Cl)cc1)[C@@H](O)c1ccc(N2CCOCC2)cc1)N1CCC2(CC1)OCc1ccccc12 [Example 46] | 24 |
| CC(O)(c1ccncc1)C(NCC(=O)N1CCC2(CC1)OCc1ccccc12)c1ccc(Cl)cc1 (stereo not shown) [Example 52, 1-(4-Chlorophenyl)-1-{[2-oxo-2-(1′H,3H-spiro[2-benzofuran-1,4-piperidin]-1′-yl)ethyl]amino}-2-pyridin-4-ylpropan-2-ol] | 26.3 |
| O=C(CN[C@@H](C(=O)N1CC(O)C1)c1ccccc1)N1CCC2(CC1)OCc1ccccc12 [Example 71, 1-[(2R)-2-{[2-Oxo-2-(1′H,3H-spiro[2-benzofuran-1,4′-piperidin]-1′-yl)ethyl]amino}-2-phenylacetyl]azetidin-3-ol] | 79.4 |
| O=C1OC2(CCN(C(=O)CNC(c3ccccc3)c3ccccc3)CC2)c2ccccc21 [Example 92, 1′-[N-(Diphenylmethyl)glycyl]-3H-spiro[2-benzofuran-1,4′-piperidin]-3-one] | 42.7 |
| CN(CC(=O)N1CCC2(CC1)OCc1ccccc12)C(c1ccccc1)c1ccccc1 [Example 93, N-(Diphenylmethyl)-N-methyl-2-oxo-2-(1′H,3H-spiro[2-benzofuran-1,4′-piperidin]-1′-yl)ethanamine] | 28.2 |
